This note sets out measurements from ChEMBL document CHEMBL1138076, “Synthesis and biological evaluation of lisofylline (LSF) analogs as a potential treatment for Type 1 diabetes” (Bioorg Med Chem Lett, 2006).

One series deals with Pancreatic beta cell. The experiment in a line: Protection of cytokine-induced death of pancreatic beta cells at 0.1 uM. The class given is functional, cell-based. Conditions: Mus musculus.
A further series deals with INS1. The experiment in a line: Secretion of insulin in INS1 cells at 20 uM. The class given is functional, cell-based. To be noted: Rattus norvegicus.
A short description of series [1]: Stability in human liver microsomes at […] at pH 7.4. To be noted: read-out: Stability. The class given is ADME, Microsome.
Series [2] in a line: Half life in human liver. Format: ADME, organism-based.

The source made the active and inactive calls.

As to `C[C@@H](O)CCCCOc1nn(CCCC[C@@H](C)O)c(=O)c2ccccc12`, the outcome with Pancreatic beta cell and in the series with INS1 was Active. Also, in series [1], the remaining was determined as 75%.
Regarding `Cc1cnc2n(C)c(=O)n(CCCC[C@@H](C)O)c(=O)n12`, the outcome in the series on Pancreatic beta cell and in the series on INS1 was Active. Also, the remaining in series [1] was determined as 82%.
Usually half-life stands for the time needed for the level to fall by half in the phase considered. Turning to `C[C@@H](O)CCCCn1c(=O)c2c(ncn2C)n(C)c1=O` [LISOFYLLINE], the result with Pancreatic beta cell and in the series with INS1 was Active. The compound further gave a half-life in series [2] of less than 3 min.
Take `CC(C)NCC(O)COc1cccc2ccccc12` (configuration not stated) [PROPRANOLOL]: the remaining in series [1] was found to be 34%.
For `C[C@]12CC[C@H]3[C@@H](CCC4=CC(=O)CC[C@@]43C)[C@@H]1CC[C@@H]2O` [TESTOSTERONE], the remaining in series [1] is 9%.
`CC(=O)CC(c1ccccc1)c1c(O)c2ccccc2oc1=O` (configuration not stated) [WARFARIN]: the remaining in series [1] was 105%.
